The values that follow come from paper PMC7287880, “Structural Basis for Broad Substrate Selectivity of Alcohol Dehydrogenase YjgB from Escherichia coli” (Molecules, 2020).

Each structure is given as a SMILES string.

For this test, the target named is T1, EcYjgB (YjgB) (Escherichia coli, UniProt P27250).
T1 construct: gene ahr; full-length, C-terminal 6xHis tag (pET30a), recombinant in E. coli BL21(DE3), purified by Ni-NTA and size exclusion; Zn-containing dimer
T1 sequence (P27250 1-339): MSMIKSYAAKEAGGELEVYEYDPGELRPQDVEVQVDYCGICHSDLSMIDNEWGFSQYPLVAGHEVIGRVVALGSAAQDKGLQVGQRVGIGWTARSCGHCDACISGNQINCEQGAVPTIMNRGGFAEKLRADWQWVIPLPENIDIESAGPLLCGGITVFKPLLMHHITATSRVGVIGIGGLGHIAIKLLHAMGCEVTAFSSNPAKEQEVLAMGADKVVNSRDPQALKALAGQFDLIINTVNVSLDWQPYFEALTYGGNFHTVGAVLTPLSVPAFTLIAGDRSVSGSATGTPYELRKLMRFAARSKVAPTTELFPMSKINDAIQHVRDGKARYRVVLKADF
The experiment in a line: X-ray crystal structure of soaked crystal, […] A. Format: binding. As to conditions: apo crystals soaked with 5 mM NADP for 30 min at 7 C; Zn-bound; PEG fragment in substrate pocket; Rossmann-fold cofactor site.

For the compound `NC(=O)c1ccc[n+]([C@@H]2O[C@H](COP(=O)(O)OP(=O)(O)OC[C@H]3O[C@@H](n4cnc5c(N)ncnc54)[C@H](OP(=O)(O)O)[C@@H]3O)[C@@H](O)[C@H]2O)c1` [NADP], the “X-ray crystal structure of soaked crystal, 2.00 A” value was “The electron density of NADP is clearly shown in the NADP(H) binding site”.
